From patent US20230089966A1, “METHOD FOR DIFFERENTIATION OF BRAIN MURAL CELLS FROM HUMAN PLURIPOTENT STEM CELLS” (WISCONSIN ALUMNI RESEARCH FOUNDATION, priority 2021, published 2023)
Blank lines part the entries; values can stand above or below the compound they belong to.

Columns and labels:
[1] = biological target: T1, Notch intracellular domain-RBPJ assembly (Homo sapiens, UniProt Q06330); experiment: Loss-of-function experiment, RT-qPCR of mural cell gene expression; type: cell-based; details: 10 μM CB-103 in culture medium; 6 days after transduction of neural crest cells
T1 construct: corresponding to amino acids 1,662-2,321 of NP_00426.2; initiator Met (start codon supplied by the forward primer) (N); expressed in transfected cells; host or cells: H9 hPSC-derived p75+ neural crest cells transduced with N3ICD-GFP (pWPI-N3ICD) lentivirus; RBPJ is endogenous
Experimental: When neural crest cells reached ˜40-50% confluence (˜2-3 days post-MACS), lentiviral transduction was performed by replacing medium in each well E6-CSFD medium containing 30-50 μL N3ICD-GFP, N1ICD-GFP, or TBX2-GFP lentivirus per mL, or 5-8 μL GFP (control) lentivirus per mL, which achieved transduction efficiencies of 50-80%. E6-CSFD medium was replaced every other day for 6 days. In some experiments, culture medium was supplemented with 10 μM CB-103 (MedChemExpress, Monmouth Junction, N.J.). The resulting cultures were either used directly for analysis or sorted to isolate GFP^+ and GFP^− cells as described below.
RNA extraction was performed using the RNeasy Plus Micro Kit (Qiagen). Cells were lysed with 350 μL Buffer RLT supplemented with 1% β-mercaptoethanol (Sigma) and transferred to gDNA Eliminator spin columns. 350 μL 70% ethanol was added to each lysate, and lysates were loaded onto RNeasy MinElute spin columns. Columns were washed with Buffer RW1, Buffer RPE, and 80% ethanol according to manufacturer protocols. RNA was eluted with RNase-free water and concentration quantified using a NanoDrop 2000 spectrophotometer (Thermo Scientific, Waltham, Mass.). 250-1000 ng of RNA was reverse-transcribed for 1 h at 37° C. using the OmniScript RT Kit (Qiagen) and 1 μM Oligo(dT)12-18 primers (Life Technologies). […]

[2] = system: N3ICD-GFP-transduced culture; experiment: Calcium imaging after KCl application; type: cell-based, human; details: 40 mM KCl, 6 days after transduction
Experimental: Calcium imaging was performed 6 days after transduction of a neural crest cultures with N3ICD-GFP lentivirus as described above. FLIPR Calcium 6 dye (Molecular Devices, San Jose, Calif.) was prepared according to manufacturer instructions. 500 μL of prepared dye was added to the existing 500 μL of culture medium and cells incubated at 37° C., 5% CO2 for 2 h. The plate was transferred to a microscope environmental chamber at 37° C., 5% CO2 and equilibrated for 30 min. Images were acquired every 5 s for 300 s using an Eclipse Ti2-E microscope with a 4× objective. At t=50 s, a 1:114 dilution of saturated KCl solution (4.56 M, for a final concentration of 40 mM) was added to the well.

[3] = system: GFP+ cells isolated via FACS from a N3ICD-GFP-transduced culture; experiment: Contraction assay (change in cell area); type: cell-based, human; details: 40 mM KCl, 15 min after addition; GFP+ cells 2 days after FACS; water control 0% change
Experimental: The contraction assay was performed 2 days after isolation of GFP^+ cells via FACS from a N3ICD-GFP-transduced culture as described above. The plate was transferred to a microscope environmental chamber at 37° C., 5% CO2 and equilibrated for 30 min. At t=0 min, a 1:114 dilution of saturated potassium chloride solution, or an equivalent volume of water, was added to the culture medium and the plate briefly rocked to mix. Phase contrast images were acquired immediately upon addition of potassium chloride or water and 15 min thereafter using an Eclipse Ti2-E microscope with a 20× objective. The Freehand Selection Tool in ImageJ was used to trace the outlines of 16 cells per 20× field at times 0 and 15 min, and the Measure function used to obtain A0 and A15, the cell areas at times 0 and 15 min, respectively. For each cell, the percent change in area was computed as (A15−A0)/A0×100%.

KATP channels = biological target: T2, KATP channels (Homo sapiens, UniProt O60706); experiment: KATP channel function by calcium imaging after KCl-induced depolarization; type: cell-based; details: 20 μM pinacidil pretreatment, 40 mM KCl, 30 s after addition
T2 construct: endogenous in cells; host or cells: hPSC-derived neural crest cultures 6 days after transduction with GFP or N3ICD-GFP lentivirus
Experimental: To assess function of KATP channels, cells 6 days after transduction with GFP or N3ICD-GFP lentiviruses were labeled with FLIPR Calcium 6 dye as above, and 20 μM pinacidil (Santa Cruz Biotechnology, Dallas, Tex.) or DMSO added 1.5 h after addition of dye. After an additional 30 min incubation, the plate was transferred to the microscope environmental chamber. Images were acquired every 5 s for 60 s and 40 mM KCl added at t=20 s. Mean fluorescence intensity was quantified as above.

T2 sequence (O60706 whole entry): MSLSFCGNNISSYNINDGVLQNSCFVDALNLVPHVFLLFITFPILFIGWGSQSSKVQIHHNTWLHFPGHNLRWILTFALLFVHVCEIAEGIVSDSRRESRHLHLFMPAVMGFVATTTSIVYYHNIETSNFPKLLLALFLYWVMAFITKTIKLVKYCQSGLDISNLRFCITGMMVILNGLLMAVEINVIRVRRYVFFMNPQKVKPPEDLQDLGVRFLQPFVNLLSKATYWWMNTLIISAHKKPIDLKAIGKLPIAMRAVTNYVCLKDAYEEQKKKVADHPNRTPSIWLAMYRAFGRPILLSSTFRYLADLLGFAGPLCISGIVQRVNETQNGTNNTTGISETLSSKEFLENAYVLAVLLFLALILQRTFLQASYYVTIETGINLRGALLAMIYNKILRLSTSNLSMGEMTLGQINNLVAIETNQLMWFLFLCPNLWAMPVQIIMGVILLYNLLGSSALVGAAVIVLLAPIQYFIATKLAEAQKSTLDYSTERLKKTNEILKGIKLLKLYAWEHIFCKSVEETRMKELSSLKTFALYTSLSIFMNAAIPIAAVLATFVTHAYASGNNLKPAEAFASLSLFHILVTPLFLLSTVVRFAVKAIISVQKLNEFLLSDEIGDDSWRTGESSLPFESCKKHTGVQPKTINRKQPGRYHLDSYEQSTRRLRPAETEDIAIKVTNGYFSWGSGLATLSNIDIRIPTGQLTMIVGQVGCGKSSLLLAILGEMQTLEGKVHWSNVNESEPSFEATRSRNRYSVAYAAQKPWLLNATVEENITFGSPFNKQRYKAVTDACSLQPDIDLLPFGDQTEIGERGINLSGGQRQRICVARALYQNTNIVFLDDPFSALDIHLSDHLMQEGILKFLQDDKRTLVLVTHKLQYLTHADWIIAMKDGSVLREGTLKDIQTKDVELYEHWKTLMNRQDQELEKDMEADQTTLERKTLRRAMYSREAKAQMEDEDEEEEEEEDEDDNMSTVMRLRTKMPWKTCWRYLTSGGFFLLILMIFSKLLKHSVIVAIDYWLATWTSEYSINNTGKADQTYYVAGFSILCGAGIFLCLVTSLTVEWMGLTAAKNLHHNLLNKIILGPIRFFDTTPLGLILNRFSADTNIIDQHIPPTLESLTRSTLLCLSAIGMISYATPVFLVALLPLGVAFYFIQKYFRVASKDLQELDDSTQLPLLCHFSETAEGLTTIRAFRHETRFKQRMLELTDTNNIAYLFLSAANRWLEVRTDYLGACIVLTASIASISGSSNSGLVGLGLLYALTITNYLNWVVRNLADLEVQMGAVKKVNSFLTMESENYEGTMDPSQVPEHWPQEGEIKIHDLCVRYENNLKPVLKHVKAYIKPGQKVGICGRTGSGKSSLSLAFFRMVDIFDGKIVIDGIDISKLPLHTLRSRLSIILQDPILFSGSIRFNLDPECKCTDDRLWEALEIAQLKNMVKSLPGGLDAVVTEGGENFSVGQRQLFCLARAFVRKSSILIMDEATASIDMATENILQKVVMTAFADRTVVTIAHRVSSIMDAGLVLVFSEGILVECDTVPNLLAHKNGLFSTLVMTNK
T2 sequence (Q15842 whole entry partner): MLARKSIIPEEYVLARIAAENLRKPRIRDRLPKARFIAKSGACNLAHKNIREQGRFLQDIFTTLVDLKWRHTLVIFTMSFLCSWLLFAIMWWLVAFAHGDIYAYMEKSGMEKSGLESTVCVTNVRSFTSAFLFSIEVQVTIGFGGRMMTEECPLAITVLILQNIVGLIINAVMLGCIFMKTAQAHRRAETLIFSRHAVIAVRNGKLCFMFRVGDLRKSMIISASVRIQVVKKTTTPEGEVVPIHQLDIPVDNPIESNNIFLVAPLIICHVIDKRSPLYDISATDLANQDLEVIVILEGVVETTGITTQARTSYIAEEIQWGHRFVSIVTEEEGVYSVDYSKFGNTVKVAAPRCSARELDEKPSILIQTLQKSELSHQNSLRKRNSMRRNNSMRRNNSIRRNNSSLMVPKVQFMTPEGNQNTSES
T1 sequence (Q06330 whole entry, the tested form may be a part): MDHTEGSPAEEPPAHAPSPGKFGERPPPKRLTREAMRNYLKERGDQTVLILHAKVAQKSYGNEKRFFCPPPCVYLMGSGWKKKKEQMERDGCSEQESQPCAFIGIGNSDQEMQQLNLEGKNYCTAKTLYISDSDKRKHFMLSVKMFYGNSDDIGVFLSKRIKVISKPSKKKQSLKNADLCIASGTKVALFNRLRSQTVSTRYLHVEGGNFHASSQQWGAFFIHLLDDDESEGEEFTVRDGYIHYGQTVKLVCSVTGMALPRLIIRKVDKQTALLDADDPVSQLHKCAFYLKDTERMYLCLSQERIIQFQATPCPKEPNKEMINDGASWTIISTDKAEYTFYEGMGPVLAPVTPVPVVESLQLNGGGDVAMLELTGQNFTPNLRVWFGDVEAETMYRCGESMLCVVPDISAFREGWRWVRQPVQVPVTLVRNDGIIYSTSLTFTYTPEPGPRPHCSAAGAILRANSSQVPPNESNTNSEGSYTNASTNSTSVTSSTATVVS

SMILES: CC(C)(C)c1ccc(Oc2ccc(N)cn2)cc1 [CB-103]
Notch-dependence of N3ICD-GFP-mediated transcriptional changes [1]: confirmed that N3ICD-GFP-mediated transcriptional changes occurred via a canonical Notch transactivation mechanism

SMILES: [Cl-].[K+] [KCl, potassium chloride]
Calcium response of cells to KCl application [2]: led to depolarization and calcium influx | average reduction in area of cells [3]: approximately 7%

intracellular calcium after KCl-induced depolarization versus DMSO-treated cells (KATP channels; GFP-transduced cultures): such a difference was not observed | intracellular calcium after KCl-induced depolarization versus DMSO-treated cells (KATP channels; N3ICD-GFP-transduced cultures): reduced intracellular calcium
SMILES: CC(N/C(=N\C#N)Nc1ccncc1)C(C)(C)C (centres unmarked) [pinacidil]
